row,melting point,SMILES
1,93 to 95 °C,"CCOC(=O)[C@H](C)NC(=O)Cc1cc(F)cc(F)c1 [Example 64, N-[(3,5difluorophenyl)acetyl]alanine ethyl ester]"
2,92 to 93 °C,"CC(C)COC(=O)[C@H](C)NC(=O)CC1CCCCC1 [Example 70, N-(cyclohexylacetyl)-L-alanine iso-butyl ester]"
3,62 to 64 °C,"CC(C)COC(=O)[C@H](C)NC(=O)CC1CCCC1 [Example 71, N-(cyclopentylacetyl)-L-alanine iso-butyl ester]"
4,49 to 51 °C,"CC(C)COC(=O)[C@H](C)NC(=O)CC1=CCCCC1 [Example 72, N-[(cyclohex-1-enyl)acetyl]-L-alanine iso-butyl ester]"

# Second part, the compound before the results:
row,SMILES,melting point
1,"Cc1ccc(CC(=O)NC(C)C(=O)OCC(C)C)cc1 (racemic) [Example 6, N-[(4-methylphenyl)acetyl]-D,L-alanine iso-butyl ester]",102 to 104 °C
2,"CC(C)COC(=O)C(C)NC(=O)Cc1cccnc1 (racemic) [Example 7, N-[(3-pyridyl)acetyl]-D,L-alanine iso-butyl ester]",62 to 64 °C
3,"CC(C)COC(=O)C(C)NC(=O)Cc1ccncc1 (racemic) [Example 12, N-[(4-pyridyl)acetyl]-D,L-alanine iso-butyl ester]",64 to 66 °C
4,"CC(C)COC(=O)[C@H](C)NC(=O)Cc1ccc(Cl)cc1 [Example 4, N-[(4-chlorophenyl)acetyl]-L-alanine iso-butyl ester]",111 to 113 °C
5,"CC(C)COC(=O)[C@H](C)NC(=O)Cc1ccc(Cl)c(Cl)c1 [Example 5, N-[(3,4-dichlorophenyl)acetyl]-L-alanine iso-butyl ester]",81 to 83 °C
6,"CC(C)COC(=O)[C@H](C)NC(=O)Cc1cccc2ccccc12 [Example 8, N-[(1-naphthyl)acetyl]-L-alanine iso-butyl ester]",69 to 73 °C
7,"CC(C)COC(=O)[C@H](C)NC(=O)Cc1ccc2ccccc2c1 [Example 9, N-[(2-naphthyl)acetyl]-L-alanine iso-butyl ester]",128 to 129 °C
8,"CC(C)COC(=O)[C@H](C)NC(=O)Cc1ccccc1 [Example 13, N-(phenylacetyl)-L-alanine iso-butyl ester]",45 to 47 °C

# Source: US6767918B2, “N-(aryl/heteroarylacetyl) amino acid esters, pharmaceutical compositions comprising same, and methods for inhibiting β-amyloid peptide release and/or its synthesis by use of such compounds” (Athena Neurosciences, Inc., priority 1996, dated 2004)
